Test results published in US4918105A, “Novel compounds with collagenase-inhibiting activity, a process for their preparation and pharmaceutical compositions in which these compounds are present” (SA Laboratoire Roger Bellon, priority 1987, dated 1990).
Read-outs that look alike come from different tables or passages of the source.

Legend:
Porcine collagenase = target: T1, Porcine collagenase (Sus scrofa, UniProt P21692); test: Specificity of the inhibition: porcine collagenase; type: biochemical; details: for inhibition at 10 µM: 10^-5 M; for inhibition at 0.1 µM: 10^-7 M
T1 construct: isolated from synovial cells in culture; endogenous in cells; host or cells: porcine synovial cells in culture
T1 sequence (P21692 100-469): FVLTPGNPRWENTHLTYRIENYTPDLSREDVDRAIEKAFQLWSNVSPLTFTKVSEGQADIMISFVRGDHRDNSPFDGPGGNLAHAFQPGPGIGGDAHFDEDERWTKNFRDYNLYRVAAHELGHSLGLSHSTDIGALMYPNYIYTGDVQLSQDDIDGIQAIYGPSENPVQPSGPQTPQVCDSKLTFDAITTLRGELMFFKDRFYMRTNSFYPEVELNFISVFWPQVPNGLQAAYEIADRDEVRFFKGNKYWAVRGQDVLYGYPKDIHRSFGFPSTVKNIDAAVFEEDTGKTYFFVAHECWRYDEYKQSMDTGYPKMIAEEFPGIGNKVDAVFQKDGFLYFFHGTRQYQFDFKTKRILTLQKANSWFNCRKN
Experimental: (§1) The anticollagenase activity of the compounds according to the present invention was determined on synovial collagenase of porcine or human origin, isolated from synovial cells in culture according to the procedure described by Cawston and Barrett (Cawston and Barrett (1979), Anal. Biochem. 99, 340-345). The collagenase was incubated at 37° C. with radiolabeled collagen and its activity was determined by the release of the soluble peptides produced by enzymatic degradation of the collagen. The inhibitory concentration IC50 for each compound was determined by measuring the activity of the enzyme in the presence of the inhibitor at a concentration of between 10^-5 and 10^-8 M.
(§2) The specificity of the inhibition was measured by studying several other enzymes, including metalloporteases other than collagenase.

Human collagenase = target: T2, Human collagenase (Homo sapiens, UniProt P03956); test: Specificity of the inhibition: human collagenase; type: biochemical; details: for inhibition at 10 µM: 10^-5 M; for inhibition at 0.1 µM: 10^-7 M
T2 construct: isolated from synovial cells in culture; endogenous in cells; host or cells: human synovial cells in culture
T2 sequence (P03956 100-469): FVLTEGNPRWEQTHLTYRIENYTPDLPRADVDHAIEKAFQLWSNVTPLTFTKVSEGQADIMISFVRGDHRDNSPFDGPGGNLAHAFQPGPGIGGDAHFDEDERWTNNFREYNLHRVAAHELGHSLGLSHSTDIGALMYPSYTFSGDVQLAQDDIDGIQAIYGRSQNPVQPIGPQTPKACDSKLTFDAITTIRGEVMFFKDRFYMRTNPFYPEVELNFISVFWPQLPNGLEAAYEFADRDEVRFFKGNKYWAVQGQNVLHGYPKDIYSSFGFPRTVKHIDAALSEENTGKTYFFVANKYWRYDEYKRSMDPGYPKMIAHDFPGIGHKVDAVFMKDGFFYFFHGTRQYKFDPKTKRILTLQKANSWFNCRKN
Experimental: as §1, §2

ACE = ACE (Homo sapiens, UniProt P12821); test: Specificity of the inhibition: ACE; type: biochemical; details: for inhibition at 10 µM: 10^-5 M; for inhibition at 0.1 µM: 10^-7 M
Experimental: as §2

Carboxypeptidase A = target: T3, Carboxypeptidase A (Bos taurus, UniProt P00730); test: Specificity of the inhibition: carboxypeptidase A; type: biochemical; details: for inhibition at 10 µM: 10^-5 M; for inhibition at 0.1 µM: 10^-7 M
T3 sequence (P00730 111-419): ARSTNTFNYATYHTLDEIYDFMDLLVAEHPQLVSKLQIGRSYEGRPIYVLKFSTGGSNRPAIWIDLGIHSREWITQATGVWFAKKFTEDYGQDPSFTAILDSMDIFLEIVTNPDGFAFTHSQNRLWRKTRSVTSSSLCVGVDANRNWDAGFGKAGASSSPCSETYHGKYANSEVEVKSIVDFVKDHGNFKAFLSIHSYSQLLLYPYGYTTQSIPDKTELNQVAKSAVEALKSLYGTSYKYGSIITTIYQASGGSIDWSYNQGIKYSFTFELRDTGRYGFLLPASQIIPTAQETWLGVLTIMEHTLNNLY
Experimental: as §2

Carboxypeptidase B = target: T4, Carboxypeptidase B (Sus scrofa, UniProt P09955); test: Specificity of the inhibition: carboxypeptidase B; type: biochemical; details: for inhibition at 10 µM: 10^-5 M; for inhibition at 0.1 µM: 10^-7 M
T4 sequence (P09955 111-416): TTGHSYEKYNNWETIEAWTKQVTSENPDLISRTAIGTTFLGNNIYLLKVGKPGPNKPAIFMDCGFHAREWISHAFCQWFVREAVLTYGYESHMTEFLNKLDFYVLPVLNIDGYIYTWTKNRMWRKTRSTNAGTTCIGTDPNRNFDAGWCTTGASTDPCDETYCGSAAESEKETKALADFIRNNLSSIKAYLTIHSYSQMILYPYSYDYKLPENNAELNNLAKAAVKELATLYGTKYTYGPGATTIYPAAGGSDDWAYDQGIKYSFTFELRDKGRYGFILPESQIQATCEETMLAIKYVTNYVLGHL
Experimental: as §2

α-Chymotrypsin = α-Chymotrypsin (Bos taurus, UniProt P00766); test: Specificity of the inhibition: α-chymotrypsin; type: biochemical; details: for inhibition at 10 µM: 10^-5 M; for inhibition at 0.1 µM: 10^-7 M
Experimental: as §2

Plasmin = Plasmin (Homo sapiens, UniProt P00747); test: Specificity of the inhibition: plasmin; type: biochemical; details: for inhibition at 10 µM: 10^-5 M; for inhibition at 0.1 µM: 10^-7 M
Experimental: as §2

Thrombin = Thrombin (Homo sapiens, UniProt P00734); test: Specificity of the inhibition: thrombin; type: biochemical; details: for inhibition at 10 µM: 10^-5 M; for inhibition at 0.1 µM: 10^-7 M
Experimental: as §2

Trypsin = target: T5, Trypsin (Bos taurus, UniProt P00760); test: Specificity of the inhibition: trypsin; type: biochemical; details: for inhibition at 10 µM: 10^-5 M; for inhibition at 0.1 µM: 10^-7 M
T5 sequence (P00760 24-246): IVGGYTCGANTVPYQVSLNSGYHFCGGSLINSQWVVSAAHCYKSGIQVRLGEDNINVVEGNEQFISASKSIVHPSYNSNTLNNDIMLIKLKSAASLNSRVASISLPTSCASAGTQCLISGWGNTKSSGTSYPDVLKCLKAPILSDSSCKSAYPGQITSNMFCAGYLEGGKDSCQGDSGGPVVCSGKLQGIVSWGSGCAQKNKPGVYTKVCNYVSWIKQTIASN
Experimental: as §2

Papain = target: T6, Papain (Carica papaya, UniProt P00784); test: Specificity of the inhibition: papain; type: biochemical; details: for inhibition at 10 µM: 10^-5 M; for inhibition at 0.1 µM: 10^-7 M
T6 sequence (P00784 134-345): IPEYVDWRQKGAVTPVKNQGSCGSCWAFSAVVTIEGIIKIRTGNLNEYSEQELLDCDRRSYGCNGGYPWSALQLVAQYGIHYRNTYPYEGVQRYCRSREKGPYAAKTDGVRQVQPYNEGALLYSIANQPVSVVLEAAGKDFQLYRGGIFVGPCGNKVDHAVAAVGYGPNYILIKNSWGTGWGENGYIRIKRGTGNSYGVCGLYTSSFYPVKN
Experimental: as §2

Pepsin = Pepsin (Sus scrofa, UniProt P00791); test: Specificity of the inhibition: pepsin; type: biochemical; details: for inhibition at 10 µM: 10^-5 M; for inhibition at 0.1 µM: 10^-7 M
Experimental: as §2

[1] = target: synovial collagenase of porcine or human origin; test: Anticollagenase activity: release of soluble peptides from radiolabeled collagen; type: biochemical
Experimental: as §1
Representative results of these tests are given for the compounds according to the invention in Table I.

bone resorption = test: Bone resorption model in isolated organ (Ca++ release); type: cell-based
Excerpt: Anticollagenase activity has also been determined in a bone resorption model described by Delaisse et al. (Delaisse et al. (1985), Biochem. Biophys. Res. commun., 133, 483-490). This model, which utilizes the degradation of cartilage and bone in an isolated organ, is more physiological than direct determination of the enzyme activity in vitro. The results of the tests are collated in Table II; the same inhibitors are found to be active in both systems.

[2] = Table I, % inhibition 50, read-out: Concentration for 50 % inhibition (IC50), anticollagenase activity

Chain of ACE (P12821 30-1306, species assumed): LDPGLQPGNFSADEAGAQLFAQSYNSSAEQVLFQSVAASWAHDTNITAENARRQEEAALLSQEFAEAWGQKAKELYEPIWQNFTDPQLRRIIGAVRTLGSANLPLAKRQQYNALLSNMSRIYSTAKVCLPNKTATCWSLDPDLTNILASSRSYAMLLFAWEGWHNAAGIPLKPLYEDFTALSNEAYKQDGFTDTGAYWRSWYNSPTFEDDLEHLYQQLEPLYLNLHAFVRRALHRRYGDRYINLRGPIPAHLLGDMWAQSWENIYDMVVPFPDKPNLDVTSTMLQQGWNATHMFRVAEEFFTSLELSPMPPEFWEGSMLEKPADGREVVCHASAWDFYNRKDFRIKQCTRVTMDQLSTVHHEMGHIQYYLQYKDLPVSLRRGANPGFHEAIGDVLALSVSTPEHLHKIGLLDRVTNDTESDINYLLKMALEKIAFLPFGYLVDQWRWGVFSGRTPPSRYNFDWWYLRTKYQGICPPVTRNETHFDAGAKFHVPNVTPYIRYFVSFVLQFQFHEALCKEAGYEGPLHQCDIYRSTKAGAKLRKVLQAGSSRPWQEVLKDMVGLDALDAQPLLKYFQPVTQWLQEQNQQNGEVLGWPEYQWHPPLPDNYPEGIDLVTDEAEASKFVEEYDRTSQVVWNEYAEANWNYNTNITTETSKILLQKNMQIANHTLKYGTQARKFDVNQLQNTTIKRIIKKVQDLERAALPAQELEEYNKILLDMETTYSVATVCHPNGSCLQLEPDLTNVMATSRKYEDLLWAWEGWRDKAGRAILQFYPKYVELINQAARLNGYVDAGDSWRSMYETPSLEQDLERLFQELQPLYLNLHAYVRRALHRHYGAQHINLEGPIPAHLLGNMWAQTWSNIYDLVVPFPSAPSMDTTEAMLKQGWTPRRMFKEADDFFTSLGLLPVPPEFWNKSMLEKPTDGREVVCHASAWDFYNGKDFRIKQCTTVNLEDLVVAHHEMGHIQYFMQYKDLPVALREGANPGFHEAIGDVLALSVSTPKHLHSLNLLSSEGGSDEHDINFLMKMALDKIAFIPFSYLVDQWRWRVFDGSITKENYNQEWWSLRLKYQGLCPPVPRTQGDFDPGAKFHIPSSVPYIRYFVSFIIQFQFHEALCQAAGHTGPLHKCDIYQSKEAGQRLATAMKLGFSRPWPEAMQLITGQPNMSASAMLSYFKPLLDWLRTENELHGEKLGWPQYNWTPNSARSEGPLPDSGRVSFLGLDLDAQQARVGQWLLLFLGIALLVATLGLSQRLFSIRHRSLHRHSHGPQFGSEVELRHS
Chain of Plasmin (P00747 581-810 limits assumed, species assumed): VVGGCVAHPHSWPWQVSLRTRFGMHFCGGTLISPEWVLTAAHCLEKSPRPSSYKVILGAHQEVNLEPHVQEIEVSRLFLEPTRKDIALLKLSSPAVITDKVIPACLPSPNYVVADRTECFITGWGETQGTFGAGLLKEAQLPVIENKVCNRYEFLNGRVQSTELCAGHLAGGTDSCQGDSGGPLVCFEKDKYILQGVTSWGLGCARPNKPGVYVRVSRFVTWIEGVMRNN
Chain of Plasmin (P00747 97-580 partner limits assumed, species assumed): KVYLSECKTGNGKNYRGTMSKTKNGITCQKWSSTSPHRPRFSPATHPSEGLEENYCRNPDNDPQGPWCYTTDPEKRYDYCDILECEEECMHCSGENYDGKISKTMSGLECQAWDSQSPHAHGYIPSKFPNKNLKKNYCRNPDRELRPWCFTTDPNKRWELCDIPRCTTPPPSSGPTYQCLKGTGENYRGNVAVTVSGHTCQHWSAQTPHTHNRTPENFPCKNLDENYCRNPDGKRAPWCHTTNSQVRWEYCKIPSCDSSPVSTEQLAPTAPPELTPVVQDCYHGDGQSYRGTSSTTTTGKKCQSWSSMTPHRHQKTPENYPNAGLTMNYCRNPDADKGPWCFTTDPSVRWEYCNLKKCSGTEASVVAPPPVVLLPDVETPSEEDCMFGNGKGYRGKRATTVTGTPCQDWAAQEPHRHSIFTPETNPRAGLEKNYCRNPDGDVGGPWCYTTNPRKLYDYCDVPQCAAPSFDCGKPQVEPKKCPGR
Chain of Pepsin (P00791 60-385): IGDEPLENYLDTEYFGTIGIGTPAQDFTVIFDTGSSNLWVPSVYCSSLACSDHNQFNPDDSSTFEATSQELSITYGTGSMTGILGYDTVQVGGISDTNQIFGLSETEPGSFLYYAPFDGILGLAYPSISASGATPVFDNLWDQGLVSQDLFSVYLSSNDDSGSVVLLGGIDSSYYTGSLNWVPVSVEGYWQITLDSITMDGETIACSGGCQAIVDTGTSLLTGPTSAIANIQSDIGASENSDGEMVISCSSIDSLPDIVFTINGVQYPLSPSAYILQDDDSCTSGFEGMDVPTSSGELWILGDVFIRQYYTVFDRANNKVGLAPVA

SMILES	inhibition at 10 µM (Porcine collagenase) [%]	inhibition at 0.1 µM (Porcine collagenase) [%]	inhibition at 10 µM (Human collagenase) [%]	inhibition at 0.1 µM (Human collagenase) [%]	inhibition at 10 µM (ACE) [%]	inhibition at 0.1 µM (ACE) [%]	inhibition at 10 µM (Carboxypeptidase A) [%]	inhibition at 0.1 µM (Carboxypeptidase A) [%]	inhibition at 10 µM (Carboxypeptidase B) [%]	inhibition at 0.1 µM (Carboxypeptidase B) [%]	inhibition at 10 µM (α-Chymotrypsin) [%]	inhibition at 0.1 µM (α-Chymotrypsin) [%]	inhibition at 10 µM (Plasmin) [%]	inhibition at 0.1 µM (Plasmin) [%]	inhibition at 10 µM (Thrombin) [%]	inhibition at 0.1 µM (Thrombin) [%]	inhibition at 10 µM (Trypsin) [%]	inhibition at 0.1 µM (Trypsin) [%]	inhibition at 10 µM (Papain) [%]	IC50 [1, 2] [nM]	other results
CC(C)CC(CC(=O)NO)C(=O)N[C@H](C(=O)NCc1ccccc1)C(C)C (single isomer, unassigned) [Example 2, N-Benzyl-Nα-(N-hydroxy-2-isobutylsuccinamoyl)-L-valinamide]	100	52	100	30	40	4	0	0	0	0	0	0	0	0	5	0	0	0	5	–	inhibition at 0.1 µM (Papain): 0%; inhibition at 10 µM (Pepsin): 19%; inhibition at 0.1 µM (Pepsin): 0%
CC(C)CC(CC(=O)NO)C(=O)N[C@H](C(=O)NCc1ccccc1)C(C)C (single isomer, unassigned) [Example 2, isomer A, N-Benzyl-Nα-(N-hydroxy-2-isobutylsuccinamoyl)-L-valinamide]	–	–	–	–	–	–	–	–	–	–	–	–	–	–	–	–	–	–	–	–	IC50 ([1]; Table II, read-out: collagenase inhibition IC50): 16000 nM; % protection against bone resorption (Ca++ release) (bone resorption; 8 μM): 0%; % protection against bone resorption (Ca++ release) (bone resorption; 25 μM): 0%
CC(C)CC(CC(=O)NO)C(=O)N[C@H](C(=O)NCc1ccccc1)C(C)C (single isomer, unassigned) [Example 3, N-Benzyl-Nα-(N-hydroxy-2-isobutylsuccinamoyl)-L-valinamide, B form]	–	–	–	–	–	–	–	–	–	–	–	–	–	–	–	–	–	–	–	35	IC50 ([1]; Table II, listed as Example 2, isomer B, read-out: collagenase inhibition IC50): 35 nM; % protection against bone resorption (Ca++ release) (bone resorption; 8 μM, listed as Example 2, isomer B): 90-100%; % protection against bone resorption (Ca++ release) (bone resorption; 25 μM, listed as Example 2, isomer B): 90-100%
CC(C)CC(CC(=O)NO)C(=O)N[C@H](C(=O)NCc1ccc(C(F)(F)F)cc1)C(C)C (single isomer, unassigned) [Example 4, N-(4-Trifluoromethylbenzyl)-Nα-(N-hydroxy-2-isobutylsuccinamoyl)-L-valinamide, B form]	–	–	–	–	–	–	–	–	–	–	–	–	–	–	–	–	–	–	–	80	–
CC(C)CC(CC(=O)NO)C(=O)N[C@H](C(=O)NCCc1ccccc1)C(C)C (single isomer, unassigned) [Example 5, N-Phenethyl-Nα-(N-hydroxy-2-isobutylsuccinamoyl)-L-valinamide, B form]	–	–	–	–	–	–	–	–	–	–	–	–	–	–	–	–	–	–	–	75	–
CC(C)CC(CC(=O)NO)C(=O)N[C@H](C(N)=O)C(C)C (stereo partly drawn) [Example 1, Nα-(N-hydroxy-2-isobutylsuccinamoyl)-L-valinamide]	100	23	100	12	4	0	0	0	0	0	0	0	0	0	0	0	0	0	5	320	inhibition at 0.1 µM (Papain): 0%; inhibition at 10 µM (Pepsin): 19%; inhibition at 0.1 µM (Pepsin): 0%
